This is an account of results in patent publication US11045449B2, “3-(5-fluoroindolyl)-4-arylmaleimide compounds and their use in tumor treatment” (JOHANNES GUTENBERG-UNIVERSITÄT MAINZ, priority 2015, dated 2021).

Structures can show the parent of a compound that is named as a salt.

In data set [1] the test system is HT-29 human colon adenocarcinoma cells. Kind of data set: MTT assay, antiproliferative activity. The class given is cell-based. Conditions: HT-29 cells, 3 days exposure, FIG. 3. From the text:
Each experiment was done in triplicate.

The nature of data set [2]: metabolic conversion in rat liver microsomes. As to conditions: 40 μM compound, 37° C., pH 7.4, RP-HPLC-MS/MS. The class given is in vitro ADME. How it is done: In a further experiment the metabolic conversion of compounds (Ia) and (IIa) was evaluated according to the following procedure:
The test compounds were incubated in the reaction mixture given below with rat liver microsomes (Corning). For this purpose the reaction mixture (components 1-5, see below) was preincubated for 10 minutes at 37° C. The reaction was started with the addition of 10 μl of the test compound followed by incubation at 37° C. for 0-300 minutes, respectively. At each time point, 50 μl of the mixture were removed, added to 250 μl of ice cold acetonitrile and vortexed immediately. After centrifugation, the acetonitrile solution was analyzed by RP-HPLC-MS/MS system.
1. Magnesiumchloride hexahydrate 50 μl
2. Glucose-6-phosphate 50 μl
4. Glucose-6-phosphate-dehydrogenase: 10 μl
6. Compounds: 40 μM (10 μl of 4 mM solution in ethanol)
Total volume: 1000 μl in 0.1 M Trizma-buffer (pH 7.4 at 37° C.)
Acquity UPLC®-Quattro Premier XE (MS) system by Waters
Column: BEH C18, 2.1×50 mm, 1.2 μm pore diameter, Waters
Solvent A: H2O, NH4-formiate 2 mM+0.1% formic acid
Solvent B: Methanol, NH4-formiate 2 mM+0.1% formic acid
Flow regime: from 70% solvent A/30% solvent B to 100% Solvent A in 2.4 minutes, then 70% solvent A/30% solvent B for 0.8 minutes.
Background: Liver microsomes are vesicles of endoplasmic reticulum, rich in cytochrome P450 enzymes.

The next data set concerns the target T1, VEGFR-2 (Homo sapiens, UniProt P35968).
T1 construct: purchased Eurofins Pharma Discovery Services UK Limited (KinaseProfiler)
Kind of data set: KinaseProfiler protein kinase inhibition, VEGFR-2. It is filed as biochemical. From the text: Detailed information can be found at: http://www.eurofins.com/pharma-services/pharma-discovery-services/services/in-vitro-pharmacology/kinases/biochemical.aspx. The assays are also described in Biochem. J. (2013) 451, 313-328.

The next data set has as its target T2, FLT-3 (Homo sapiens, UniProt P36888).
T2 construct: purchased Eurofins Pharma Discovery Services UK Limited (KinaseProfiler)
T2 sequence (P36888 27-993): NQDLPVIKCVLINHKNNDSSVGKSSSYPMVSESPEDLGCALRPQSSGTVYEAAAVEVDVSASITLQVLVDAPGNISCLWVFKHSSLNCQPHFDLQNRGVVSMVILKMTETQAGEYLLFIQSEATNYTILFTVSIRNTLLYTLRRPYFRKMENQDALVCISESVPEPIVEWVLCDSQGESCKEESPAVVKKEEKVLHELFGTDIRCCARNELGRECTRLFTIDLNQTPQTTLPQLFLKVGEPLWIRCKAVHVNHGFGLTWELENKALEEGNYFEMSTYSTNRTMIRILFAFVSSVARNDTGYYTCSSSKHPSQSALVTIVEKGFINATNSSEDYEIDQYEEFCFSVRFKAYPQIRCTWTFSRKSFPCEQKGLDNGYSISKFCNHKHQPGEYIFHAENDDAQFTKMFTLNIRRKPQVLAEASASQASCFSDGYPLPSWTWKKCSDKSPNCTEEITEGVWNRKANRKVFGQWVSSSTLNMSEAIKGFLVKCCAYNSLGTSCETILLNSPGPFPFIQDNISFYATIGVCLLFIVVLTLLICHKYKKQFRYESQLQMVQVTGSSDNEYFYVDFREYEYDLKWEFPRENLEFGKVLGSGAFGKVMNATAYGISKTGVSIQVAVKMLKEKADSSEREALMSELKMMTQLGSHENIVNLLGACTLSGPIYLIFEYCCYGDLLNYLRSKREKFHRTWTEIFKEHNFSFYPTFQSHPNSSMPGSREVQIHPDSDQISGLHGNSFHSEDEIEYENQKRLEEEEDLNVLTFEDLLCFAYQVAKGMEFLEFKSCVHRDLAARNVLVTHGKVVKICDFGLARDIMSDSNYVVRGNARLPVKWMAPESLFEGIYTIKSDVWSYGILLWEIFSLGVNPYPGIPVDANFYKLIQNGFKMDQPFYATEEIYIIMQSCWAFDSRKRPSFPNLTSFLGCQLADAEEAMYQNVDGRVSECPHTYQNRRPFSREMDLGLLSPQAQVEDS
Kind of data set: KinaseProfiler protein kinase inhibition, FLT-3. The class given is biochemical. Here is the method:
(§1) The effect of test compounds on the activity of the protein kinases GSK-3β, VEGFR-2 and FLT-3 was evaluated based on half maximal inhibitory concentration (IC50) values determined by Eurofins Pharma Discovery Services UK Limited, Gemini Crescent, Dundee Technology Park, Dundee, DD2 1SW (KinaseProfiler™). Detailed information can be found at: http://www.eurofins.com/pharma-services/pharma-discovery-services/services/in-vitro-pharmacology/kinases/biochemical.aspx. The assays are also described in Biochem. J. (2013) 451, 313-328.

The next data set concerns the target GSK-3β (Homo sapiens, UniProt P49841). Kind of data set: KinaseProfiler protein kinase inhibition, GSK-3β. The class given is biochemical. Here is the method: as §1

T1 sequence (P35968 20-1356): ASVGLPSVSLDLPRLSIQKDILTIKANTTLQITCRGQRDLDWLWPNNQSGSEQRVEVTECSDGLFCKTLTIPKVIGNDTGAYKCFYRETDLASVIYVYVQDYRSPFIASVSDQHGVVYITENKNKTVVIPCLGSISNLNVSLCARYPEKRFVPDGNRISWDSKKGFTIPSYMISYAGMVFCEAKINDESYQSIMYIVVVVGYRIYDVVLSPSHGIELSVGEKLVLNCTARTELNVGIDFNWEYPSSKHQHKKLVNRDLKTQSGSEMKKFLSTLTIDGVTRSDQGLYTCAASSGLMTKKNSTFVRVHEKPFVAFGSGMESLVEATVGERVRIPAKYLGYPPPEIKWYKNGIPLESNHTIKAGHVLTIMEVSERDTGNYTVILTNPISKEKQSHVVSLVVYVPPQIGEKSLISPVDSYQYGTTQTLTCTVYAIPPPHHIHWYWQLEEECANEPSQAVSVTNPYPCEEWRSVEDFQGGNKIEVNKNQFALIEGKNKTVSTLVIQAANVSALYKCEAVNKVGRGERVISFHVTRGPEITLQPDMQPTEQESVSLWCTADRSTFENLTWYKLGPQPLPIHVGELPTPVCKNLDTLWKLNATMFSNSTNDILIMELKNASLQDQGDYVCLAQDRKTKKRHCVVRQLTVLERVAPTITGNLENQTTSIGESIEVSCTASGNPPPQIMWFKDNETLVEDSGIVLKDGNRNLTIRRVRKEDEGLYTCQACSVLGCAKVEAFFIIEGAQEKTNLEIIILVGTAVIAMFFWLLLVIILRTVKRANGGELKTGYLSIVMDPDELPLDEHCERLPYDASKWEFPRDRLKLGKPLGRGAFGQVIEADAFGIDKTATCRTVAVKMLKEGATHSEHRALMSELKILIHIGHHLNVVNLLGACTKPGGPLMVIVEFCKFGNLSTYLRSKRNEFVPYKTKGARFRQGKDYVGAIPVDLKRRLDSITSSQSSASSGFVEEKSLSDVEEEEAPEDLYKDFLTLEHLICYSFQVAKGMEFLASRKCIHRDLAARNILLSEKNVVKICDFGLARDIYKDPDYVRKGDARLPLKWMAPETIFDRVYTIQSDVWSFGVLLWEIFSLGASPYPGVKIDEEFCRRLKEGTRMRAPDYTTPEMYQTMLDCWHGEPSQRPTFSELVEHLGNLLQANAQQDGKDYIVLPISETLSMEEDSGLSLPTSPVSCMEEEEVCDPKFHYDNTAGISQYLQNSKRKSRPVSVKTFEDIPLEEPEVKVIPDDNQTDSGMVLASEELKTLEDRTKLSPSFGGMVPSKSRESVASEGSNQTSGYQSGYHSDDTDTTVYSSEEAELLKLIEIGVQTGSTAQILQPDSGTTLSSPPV
GSK-3β, sequence (P49841 whole entry): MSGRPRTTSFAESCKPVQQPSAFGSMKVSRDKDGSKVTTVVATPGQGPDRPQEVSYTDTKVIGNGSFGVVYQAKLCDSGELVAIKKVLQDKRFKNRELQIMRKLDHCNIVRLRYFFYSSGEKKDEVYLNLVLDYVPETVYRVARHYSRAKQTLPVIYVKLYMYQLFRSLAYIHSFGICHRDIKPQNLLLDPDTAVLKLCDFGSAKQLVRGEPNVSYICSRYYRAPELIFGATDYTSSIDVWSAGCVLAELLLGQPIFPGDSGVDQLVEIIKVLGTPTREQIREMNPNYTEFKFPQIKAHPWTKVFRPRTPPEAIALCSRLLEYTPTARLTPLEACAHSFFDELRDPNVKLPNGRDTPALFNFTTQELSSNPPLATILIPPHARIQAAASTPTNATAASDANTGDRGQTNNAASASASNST

Broadly, the melting point is the temperature, or range, at which the solid turns liquid. On to `COc1cc(C2=C(c3cn(CCOC(=O)C(N)CC(C)C)c4ccc(F)cc34)C(=O)NC2=O)cc(OC)c1OC` (stereo not shown) (as salt: salt) [Ia, 2-(3-(2,5-Dioxo-4-(3,4,5-trimethoxyphenyl)-2,5-dihydro-1H-pyrrol-3-yl)-5-fluoro-1H-indol-1-yl)-ethyl-2-amino-4-methylpentanoate], for which the melting point was found to be 180 °C. Regarding `COc1cc(C2=C(c3c[nH]c4ccc(F)cc34)C(=O)NC2=O)cc(OC)c1O` [Id, 3-(5-fluoro-1H-indol-3-yl)-4-(4-hydroxy-3,5-dimethoxyphenyl)-maleimide], the “antiproliferative activity (viability)” value in data set [1] was “higher activity as compared to (IId)”. For `COc1cc(C2=C(c3cn(CCOC(=O)C(N)CC(C)C)c4ccccc34)C(=O)NC2=O)cc(OC)c1OC` (stereo not shown) [IIa, reference compound], the “time until largely metabolized” value in data set [2] is 2 h. Broadly, the IC50 is the concentration that gives 50% inhibition. A lower IC50 goes with higher potency. In the case of `COc1cc(C2=C(c3cn(CCCO)c4ccc(F)cc34)C(=O)NC2=O)cc(OC)c1OC` [If, 3-(5-fluoro-1-(3-hydroxypropyl)-1H-indol-3-yl)-4-(3,4,5-trimethoxyphenyl)-maleimide], the IC50 at VEGFR-2 turned out to be 168 nM; against FLT-3 it was 84 nM. In the case of `COc1cc(C2=C(c3cn(CCO)c4ccc(F)cc34)C(=O)NC2=O)cc(OC)c1O` [Ic, 3-(5-fluoro-1-(2-hydroxyethyl)-1H-indol-3-yl)-4-(4-hydroxy-3,5-dimethoxyphenyl)-maleimide], the melting point was 233 °C. With `COc1cc(C2=C(c3cn(CCOC(=O)C(N)CC(C)C)c4ccc(F)cc34)C(=O)NC2=O)cc(OC)c1OC` (stereo not shown) [Ia, 2-(3-(2,5-Dioxo-4-(3,4,5-trimethoxyphenyl)-2,5-dihydro-1H-pyrrol-3-yl)-5-fluoro-1H-indol-1-yl)-ethyl-2-amino-4-methylpentanoate], the “time until largely metabolized” value in data set [2] is reported as 1 h.

The molecule `COc1cc(C2=C(c3cn(CCCO)c4ccccc34)C(=O)NC2=O)cc(OC)c1OC` [IIe] yielded an IC50 at GSK-3β of 2 nM.

As for `COc1cc(C2=C(c3cn(CCO)c4ccc(F)cc34)C(=O)NC2=O)cc(OC)c1OC` [Ib, 3-(5-fluoro-1-(2-hydroxyethyl)-1H-indol-3-yl)-4-(3,4,5-trimethoxyphenyl)-maleimide], the IC50 against VEGFR-2 is 79 nM; at FLT-3 it was 66 nM.
